Earlier results as cited in patent publication US20080317845A1, “Duloxetine Formulation” (priority 2007, published 2008).
Counter-ions that a name gives are not always drawn.

## CNCC[C@H](Oc1cccc2ccccc12)c1cccs1 [duloxetine, (+)-(S)-N-methyl-y-(1-naphthyloxy)-2-thiophenepropylamine hydrochloride]
  stability in acidic media: unstable
